Experimental data published in patent US6087375A, “Methods of treating or preventing thromboses” (priority 1999, dated 2000).

How the values were obtained:
[1] = biological target: rabbit serum albumin (RSA) (Oryctolagus cuniculus, UniProt P49065); assay: Mass spectrometric analysis of conjugation to RSA (HPLC/ESIMS, MALDI-TOFMS); assay type: binding; settings: HPLC/ESIMS, RSA 4.5 μM, 1 hour, room temperature
Description: (§1) All samples were analyzed using a high performance liquid chromatograph (HPLC) coupled in-line to an electrospray ionization (ESI) mass spectrometer (MS) which is termed HPLC/ESIMS. Some samples were also analyzed using a matrix-assisted laser desorption ionization (MALDI) time-of-flight (TOF) mass spectrometer which is termed (MALDI-TOFMS).
(§2) Samples for HPLC/ESIMS were either prepared as duplicate reaction samples or were part of the same reaction samples which were used in the ELISA assays described below. These samples were injected directly only the HPLC/ESIMS without any manipulation other than dilution with water, where the PBS, DMSO, and unreacted derivative molecules are separated from the protein-argatroban derivative molecule conjugate. Samples for MALDI-MS were first HPLC-purified and mixed 1:1 directly on the stainless steel analysis plate with a matrix of 10 mg/ml sinnapinic acid in 50% acetonitrile/50% water. The mixture was then dried with a gentle flow of air to allow for crystallization and inserted into the instrument for laser ionization.
(§3) The HPLC is a Hewlett Packard 1090 Series II liquid chromatogram with a diode array detector. The column used for separation is a Brownlee aquapore OD-300 reversed phase C18 column, 1 mm×10 cm, 300 Å pore size, 7 μm particle diameter. The mass spectrometer to which the HPLC is connected using fused Silica capillary tubing is a Sciex API-300 triple quadrupole mass spectrometer with an ionspray source to allow for atmospheric pressure ionization of a liquid flowing continuously into the instrument. The MALDI-TOFMS is a Perceptive Biosystems Voyager Elite DE instrument run in the linear mode.
The conjugate was prepared according to the following protocol. […] Sham samples consist of the RSA incubated for the same length of time at RT in 2% DMSO in PBS. Each of the samples was then concentrated to a final volume of 1.5 mL using Amicon Centricon 30 filtration/concentration devices. The concentrated samples were then desalted on Pierce's 5 ML Kwiksep excellulose plastic desalting columns. The excluded volumes containing RSA or argatroban-C6-RSA were then subjected to BCA microprotein estimation and lyophilization. In addition, these samples were analyzed by LC/MS, sandwich ELISA assays (described above) to measure thrombin binding and immunoblotting.

[2] = biological target: human serum albumin (HSA) (Homo sapiens, UniProt P02768); assay: Mass spectrometric analysis of conjugation to HSA (HPLC/ESIMS); assay type: binding; settings: HSA 5 μM, 1 hour, room temperature
human serum albumin (HSA), sequence (P02768 25-609): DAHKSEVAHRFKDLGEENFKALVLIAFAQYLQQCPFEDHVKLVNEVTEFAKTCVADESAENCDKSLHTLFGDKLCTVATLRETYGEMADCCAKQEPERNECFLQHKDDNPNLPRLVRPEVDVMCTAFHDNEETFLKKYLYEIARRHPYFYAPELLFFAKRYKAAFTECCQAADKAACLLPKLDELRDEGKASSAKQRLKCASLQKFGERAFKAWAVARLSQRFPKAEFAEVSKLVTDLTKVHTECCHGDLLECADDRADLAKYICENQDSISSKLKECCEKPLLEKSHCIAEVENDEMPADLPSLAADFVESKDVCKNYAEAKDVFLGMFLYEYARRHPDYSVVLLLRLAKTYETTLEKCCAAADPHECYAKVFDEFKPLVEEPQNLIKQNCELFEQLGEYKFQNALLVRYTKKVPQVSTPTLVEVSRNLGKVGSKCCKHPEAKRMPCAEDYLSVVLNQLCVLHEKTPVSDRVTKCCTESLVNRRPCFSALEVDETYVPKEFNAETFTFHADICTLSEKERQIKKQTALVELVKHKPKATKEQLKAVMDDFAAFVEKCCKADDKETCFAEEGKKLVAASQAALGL
Description: as §1, §2, §3

[3] = tested on: human platelets (thrombin-induced aggregation); assay: Thrombin-induced platelet aggregation assay; assay type: cell-based; settings: for IC50 (estimated concentration which inhibits 50% of the aggregation): 0.5 U/mL human thrombin, 37° C., conjugate: average of 10 argatrobans/RSA used
Description: The conjugate was prepared according to the following protocol. A 15 μM solution of RSA in PBS was reacted with 200 μM argatroban-C6 NHS ester for 1 hour at room temperature. Sham samples consist of the RSA incubated for the same length of time at RT in 2% DMSO in PBS. Each of the samples was then concentrated to a final volume of 1.5 mL using Amicon Centricon 30 filtration/concentration devices. The concentrated samples were then desalted on Pierce's 5 ML Kwiksep excellulose plastic desalting columns. The excluded volumes containing RSA or argatroban-C6-RSA were then subjected to BCA microprotein estimation and lyophilization. In addition, these samples were analyzed by LC/MS, sandwich ELISA assays (described above) to measure thrombin binding and immunoblotting.
Platelets were purified from freshly drawn human blood diluted with the anticoagulant buffer ACD (9 mls of blood to 1 mL of buffer). The blood was centrifuged for 25 min at 200×g. The platelet-rich plasma (PRP) was recovered with a plastic pipette. The PRP was centrifuged for 15 min at 3,000×g in v-shaped plastic tubes. The supernatant, called platelet-poor plasma (PPP), was then removed and saved, and the platelets were resuspended in buffer A1 (35 mM citric acid, 103 mM NaCl, 5 mM each of glucose and KCl, 2 mM CaCl2, 1 mM […], 3.5 mg/mL BSA, 0.1 μM PGE1 and 0.3 U/mL of apyrase at pH 6.5). The resuspended platelets were washed 2 times with buffer A1. After the last wash, the platelets were resuspended in buffer B1 (137 mM NaCl, 2.6 mM KCL 12 mM NaHCO3, 0.3 mM NaH2 PO4, 3 mM CaCl2, 1 mM MgCl2, 5 mM glucose, 3.5 mg/mL BSA and […] apyrase at pH 7.4) at a density of 3×10^5 /μL. The platelets were maintained at room temperature until ready for use.
Various parameters relevant to platelet aggregation were obtained on a four channel aggregometer manufactured by AFFI BIO. In brief, the reaction chambers are warmed to 37° C. and are agitated at a rate of 1,200 rpm. Light is passed through the reaction chambers, with 300 μL of buffer B1 used to set the 100% transmittance level for each chamber. From a series of standardization experiments, it was determined that 0.5 U/mL of human thrombin (Sigma) is an optimal aggregating concentration of thrombin and is used to set. the 0% transmittance for the instrument. Standard conditions for the assay involve incubating 250 μL of the platelet suspension with or without 50 μL of inhibitor diluted in buffer in the reaction chambers for 60 seconds at 37° C. The value of transmittance is now set as 0%. After this measurement, thrombin is added to the reaction chambers (20 μl) and transmittance is measured for the next 6 minutes. Samples were performed in triplicate.

[4] = biological target: thrombin from human plasma (Homo sapiens, UniProt P00734); assay: Km-based fluorogenic assay for inhibition of thrombin (Example 7); assay type: biochemical; set-up: from tissue; host or cells: human plasma; settings: FIGS. 9 and 10
Description: Thrombin from human plasma was obtained from Enzyme System Products, Dublin, Calif., in glycerol:water 1:1, 11.4 mg/ml, 3800 U/mg, MW 36,700, and stored undiluted at -20° C. It was freshly diluted the day of use.
To dilute for the assay, 0.67 μl (25 Units) of thrombin was pipetted into 5 ml of 0.1 mg/ml BSA (from Pierce, Catalog No. 23209, BSA fraction V, a 2 mg/ml stock in saline with sodium azide), in cold PBS (GIBCO, Catalog No. 14190-136, without calcium chloride and magnesium chloride, pH 7.2) and briefly vortexed, yielding a stock of 5 mU thrombin/μl.
The substrate was N-tBOC-β-Benzyl-Asp-Pro-Arg-7-Amido4-Methylcoumarin HCl and was obtained from Sigma, Catalog No. B4028, Lot 122H0070, F.W. 770.3. Five mg was dissolved in […] DMSO for a 4 mM stock. The stock was stored in 200 μl aliquots at -20° C. in the dark.
An alternative substrate was N-tBOC-Val-Pro-Arg-7-Amido4-Methylcoumarin HCl and was obtained from Sigma, Catalog No. B-9385, Lot 53H0805, F.W. of free base 627.7. Five mg was dissolved in 1.863 ml DMSO for a 4 mM stock. The stock was stored in 200 μl aliquots at -20° C. in the dark.
The fluorescent standard was 7-Amido4-Methylcoumarin and was obtained from Aldrich, Catalog No. 25,737-0, MW 175.19. […]
Initial readings were taken to ensure exclusion of rogue wells with abnormally high backgrounds (λ excitation at 360 nm, bandwidth […], λ emission, 460 nm, bandwidth 40 nm). Then, 25 μl of a 10×stock of the putative inhibitor were added per well, mixed for 5 seconds and read kinetically for 10 minutes at ambient temperature to assess background interference and/or any increase in hydrolysis of substrate due to inhibitor.
The thrombin assay was then initiated by adding 25 μl of thrombin/well with a multichannel pipettor and mixed for 5 seconds. The appearence of the fluorescent product (free 7-amido-4-methylcoumarin released from the peptide by thrombin) was followed simultaneously in 48 wells (one reading per minute for 30 minutes, λ excitation at 360 nm, bandwidth 40 nm, λ emission, 460 nm, bandwidth 40 nm). […]

[5] = tested on: anti-KLH-argatroban antibody; assay: Sandwich ELISA using polyclonal anti-KLH-argatroban antibodies; assay type: binding, rabbit; settings: for concentration down to which detected: hGPA conjugate
Description: The reaction was quenched by adding hydroxylamine, pH 7.8 to a final concentration of 50 mM and incubating at room temperature for 10 minutes.
Rabbit anti-HSA monoclonal antibody (Boehringer/Mannheim, catalog no. 605001) diluted 1:5000 in PBS, pH 7.4 or mouse anti-hGPA monoclonal antibody (BioAtlan-tic/CRTS, mAb 5F4, diluted to 10 μg/ml in 0.1 M sodium acetate, pH 4.5 or mAb 3C10 diluted 1:500 or mAb 3E4 diluted 1:1000 in PBS, pH 7.4 - each antibody recognizes a different epitope of hGPA), were used to capture respective proteins by aliquotting 100 μl/well into a NUNC Maxisorp F96 plate (catalog no. 439454). The plates were incubated overnight at 4° C., were then blocked by the addition of 200 μl/well of 1% BSA/PBS and incubated at room temperature for 1 hour. The plates were then washed 5 times by submersion in PBS, pH 7.4.
Samples were incubated on the plates for 2 hours at room temperature and then were washed as above.
The plates were then incubated at room temperature for 30 minutes and washed as above.
Biotinylated goat anti-rabbit IgG (Vector, catalog no. BA1000) was diluted 1:1000 in 1% BSA/PBS, pH 7.4 and 100 μl/well added to all wells. The plates were incubated at room temperature for 30 minutes and washed as above.
Next, 100 μl/well of ABC-HRP (Vector, catalog no. PK4000) was added, each component diluted 1:500 in PBS, pH 7.4, with 0.1% TWEEN 20 and incubated 30 minutes at room temperature prior to use. The plates were then washed 10 times by submersion in PBS, pH 7.4.

[6] = tested on: thrombin; assay: Sandwich ELISA for thrombin binding of conjugated proteins (anti-thrombin detection); settings: hGPA conjugate, capture mAb 5F4, FIG. 4
Description: (§4) The plates were incubated at room temperature for 30 minutes and washed as above.
as §4
Next, 100 μl/well of ABC-HRP (Vector, catalog no. PK4000) was added, each component diluted 1:500 in PBS, pH 7.4, with 0.1% TWEEN 20 and incubated 30 minutes at room temperature prior to use.

rabbit serum albumin (RSA), sequence (P49065 25-608): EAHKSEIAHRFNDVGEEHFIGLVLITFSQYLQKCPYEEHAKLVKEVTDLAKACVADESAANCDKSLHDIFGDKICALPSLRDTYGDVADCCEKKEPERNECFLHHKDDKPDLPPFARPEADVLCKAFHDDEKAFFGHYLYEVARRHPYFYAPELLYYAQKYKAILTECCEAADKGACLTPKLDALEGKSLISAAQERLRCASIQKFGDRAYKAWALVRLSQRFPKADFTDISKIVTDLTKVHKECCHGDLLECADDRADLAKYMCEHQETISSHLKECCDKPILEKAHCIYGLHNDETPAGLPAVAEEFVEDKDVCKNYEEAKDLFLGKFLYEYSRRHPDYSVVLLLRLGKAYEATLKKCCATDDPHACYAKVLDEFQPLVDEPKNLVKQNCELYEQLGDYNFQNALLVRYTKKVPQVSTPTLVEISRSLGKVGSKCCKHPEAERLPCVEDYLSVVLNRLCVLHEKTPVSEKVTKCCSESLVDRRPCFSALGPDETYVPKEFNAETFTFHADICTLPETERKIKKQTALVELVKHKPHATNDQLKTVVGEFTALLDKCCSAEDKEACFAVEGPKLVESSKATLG

CC1CNc2c(cccc2S(=O)(=O)NC(CCCNC(=N)N)C(=O)N2CCC(C)CC2C(=O)NCCCCCCCCCCCC(=O)ON2C(=O)CCC2=O)C1 (stereo not shown) [compound YL-015-11]
covalent addition of argatroban derivative molecules per RSA molecule ([1]; 0.5 μM ester): 0-3 argatroban derivative molecules per RSA molecule
covalent addition of argatroban derivative molecules per RSA molecule ([1]; 100 μM ester): 1-5 argatroban derivative molecules per RSA molecule
covalent addition of argatroban derivative molecules per HSA molecule ([2]; 0.5 μM ester): 0-4 argatroban derivative molecules per HSA molecule
covalent addition of argatroban derivative molecules per HSA molecule ([2]; 100 μM ester): 1-5 argatroban derivative molecules per HSA molecule

CC1CNc2c(cccc2S(=O)(=O)N[C@@H](CCCNC(=N)N)C(=O)N2CC[C@@H](C)C[C@@H]2C(=O)O)C1 (stereo partly shown) [argatroban, reference compound]
IC50 (estimated concentration which inhibits 50% of the aggregation) [3]: approximately 0.1 μM
IC50 (estimated concentration which inhibits 50% of the aggregation) ([3]; listed as Free argatroban): 0.1 to 0.15 µM

RSA sham: RSA incubated for the same length of time at RT in 2% DMSO in PBS
thrombin inhibition [4]: not inhibitory at any concentration assayed
IC50 (estimated concentration which inhibits 50% of the aggregation) [3]: > 150 µM
interference with platelet aggregation ([3]; even at 150 μM): did not interfere with platelet aggregation even at 150 μM

B1: hGPA reacted with argatroban-C6 NHS ester: human glycophorin A protein reacted with argatroban-C6 NHS ester (YL-015-35) (conjugate, UniProt P02724 20-150, looked up)
Glycophorin-A: LSTTEVAMHTSTSSSVTKSYISSQTNDTHKRDTYAATPRAHEVSEISVRTVYPPEEETGERVQLAHHFSEPEITLIIFGVMAGVIGTILLISYGIRRLIKKSPSDVKPLPSPDTDVPLSSVEIENPETSDQ
modifications: argatroban-C6 conjugate
increase of OD490 versus prequenched ester or protein alone ([5]; HSA and hGPA samples, FIGS. 5-8): significant increase of OD490
concentration down to which detected ([5]; goat anti-rabbit erythrocyte capture): 60 ng/mL
concentration down to which detected ([5]; mouse anti-hGPA capture): 30 ng/mL
detection of hGPA-argatroban derivative ([5]; hGPA, 3C10 mAb, FIG. 7): at lower levels
detection of hGPA-argatroban derivative ([5]; hGPA, 3E4 mAb, FIG. 8): at lower levels
concentration at which a significant signal above background was detected ([5]; hGPA, 5F4 mAb, FIG. 6): ~12 ng/mL
concentration giving a detectable signal (binding of thrombin) [6]: approximately 30 ng/ml
